According to patent US20240189315A1, “Cyclic Pyridine Derivatives as cGAS Inhibitors” (Boehringer Ingelheim International GmbH, priority 2022, published 2024):
Read-outs that look alike come from different tables or passages of the source.

Legend:
[1] = biological target: T1, cellular cGAS activity in baculovirus-stimulated THP1-Dual cells (Homo sapiens (Human), UniProt Q8N884); settings: Table 4; compounds and methyl ester prodrugs of PCT/EP2022/062480 and PCT/EP2022/062496; read-out: THP1(vir) IC50; cited from earlier work
[2] = test system: pathway directly downstream of cGAS in cGAMP-stimulated THP1-Dual cells; settings: Table 4; compounds and methyl ester prodrugs of PCT/EP2022/062480 and PCT/EP2022/062496; cited from earlier work
[3] = biological target: T2, cellular cGAS activity in dsDNA-stimulated human whole blood (Homo sapiens (Human), UniProt Q8N884); settings: Table 4; compounds and methyl ester prodrugs of PCT/EP2022/062480 and PCT/EP2022/062496; read-out: hWB IC50; cited from earlier work
[4] = biological target: Human cGAS enzyme (Homo sapiens (Human), UniProt Q8N884); assay: Human cGAS enzyme assay (hcGAS IC50, in vitro), cGAMP formation by RapidFire MS; format: biochemical; settings: Table 1;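 note: recombinant human cGAS activated by 45 bp dsDNA with 30 µM each ATP and GTP, 90 min, cGAMP vs cyclic-di-GMP standard by MS, 8-point titration from 10 µM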
[5] = biological target: T1, cellular cGAS activity in baculovirus-stimulated THP1-Dual cells; assay: Human cGAS cell assay (THP1(vir) IC50): IFN induction in virus-stimulated THP1-Dual cells, IRF Lucia luciferase reporter; format: cell-based; settings: Table 1; virus-stimulated THP1 cells; read-out: THP(vir) IC50;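 note: Eight-point dilution series starting at 10 µM, 1% DMSO, 18 h at 37 °C, luminescence read-out, virus-free wells as 0% and DMSO-treated virus-stimulated wells as 100%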
[6] = test system: pathway directly downstream of cGAS in cGAMP-stimulated THP1-Dual cells; assay: cGAMP stimulated counter cell assay (THP1(cGAMP) IC50): IFN induction in cGAMP-stimulated THP1-Dual cells; format: cell-based, human; settings: Table 1; for IC50: Homo sapiens, THP1-Dual, cGAMP-stimulated THP1 cells, read-out: THP(cGAMP) IC50; for Ratio THP(cGAMP) IC50/ THP(vir) IC50: selectivity for cGAS inhibition
From the text: 6.2 Method: Human cGAS Cell Assay and cGAMP Stimulated Counter Cell Assay (THP1(vir) IC50 and THP1(cGAMP) IC50)
THP1-Dual™ cells (InvivoGen #thpd-nfis) expressing IRF dependent Lucia luciferase reporter were used as basis for both assays. For the detection of cellular cGAS activity cells were stimulated by a baculovirus (pFastbac-1, Invitrogen, no coding insert) infection that delivers the cGAS enzyme stimulating double-stranded DNA (measurement of THP1(vir) IC50).
For the counter assay, cells were stimulated by cGAMP (SigmaAldrich #SML1232) to activate the identical pathway independent and directly downstream of cGAS (measurement of THP1(cGAMP) IC50). Pathway activity was monitored by measuring the Lucia luciferase activity induced by either DNA stimulated cGAS enzyme activity (measurement of THP1(vir) IC50) or by cGAMP directly (measurement of THP1(cGAMP) IC50, counter assay).
Compounds were delivered in 10 mM DMSO solution, serially diluted and transferred to the 384 well assay plate (Greiner #781201) using an Echo acoustic dispenser. Typically, 8 concentrations were used with the highest concentration at 10 μM in the final assay volume followed by ˜1:5 dilution steps. DMSO concentration was set to 1% in the final assay volume. The 384 well assay plate contained 21 test compounds (column 1-22), and DMSO in column 23 and 24.
Cells, cultivated according to manufacturer conditions, were harvested by centrifugation at 300 g/10 min and were then resuspended and diluted to 1.66E5 cells/ml in fresh cell culture medium (RPMI 1640 (Gibco #A10491-01), 10% FCS (Gibco #10500), 1× GlutaMax (Gibco #35050-061), 1× Pen/Strep solution (Gibco #15140-122), 100 μg/ml Normocin (InvivoGen #ant-nr), 100 μg/ml Zeocin (InvivoGen #ant-zn), 10 μg/ml Blasticidin S (Life Technologies #A11139-03)). The baculovirus solution was then added 1:200 (have varied according to virus batch) to the cells (measurement of THP1(vir) IC50). […] 30 μL of the cell/virus-mix were added to each well of the compound plate from column 1-23 via MultiDrop Combi dispenser (5000 cells/well). In column 24, 30 μl/5000 cells/well without virus were added as a low control.
The plates were then incubated for 18 h at 37° C. in a humidified incubator.
Following that, 15 μL of QuantiLuc detection reagent (InvivoGen #rep-qlcg5) were added to each well using a MultiDrop Combi. Measurement was done immediately after the addition using an EnVision reader (US-luminescence read-mode).
Data Evaluation and Calculation:
For data evaluation and calculation, the measurement of the low control was set as 0% control and the measurement of the high control was set as 100% control. The IC50 values were calculated using the standard 4 parameter logistic regression formula. Calculation: [y=(a−d)/(1+(x/c)^b)+d], a=low value, d=high value; x=conc M; c=IC50 M; b=slope

[7] = biological target: T2, cellular cGAS activity in dsDNA-stimulated human whole blood; assay: Human whole blood assay (hWB IC50): IFNα2a production after dsDNA transfection; format: cell-based; settings: Table 1; dsDNA-stimulated human whole blood;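 note: IFNα-2a in plasma measured by MSD electrochemiluminescence immunoassay after 22 h at 37 °C, 8-point dilution series from 10 µM top concentration, DMSO wells as controls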

Sequence of Human cGAS enzyme (Q8N884 whole entry): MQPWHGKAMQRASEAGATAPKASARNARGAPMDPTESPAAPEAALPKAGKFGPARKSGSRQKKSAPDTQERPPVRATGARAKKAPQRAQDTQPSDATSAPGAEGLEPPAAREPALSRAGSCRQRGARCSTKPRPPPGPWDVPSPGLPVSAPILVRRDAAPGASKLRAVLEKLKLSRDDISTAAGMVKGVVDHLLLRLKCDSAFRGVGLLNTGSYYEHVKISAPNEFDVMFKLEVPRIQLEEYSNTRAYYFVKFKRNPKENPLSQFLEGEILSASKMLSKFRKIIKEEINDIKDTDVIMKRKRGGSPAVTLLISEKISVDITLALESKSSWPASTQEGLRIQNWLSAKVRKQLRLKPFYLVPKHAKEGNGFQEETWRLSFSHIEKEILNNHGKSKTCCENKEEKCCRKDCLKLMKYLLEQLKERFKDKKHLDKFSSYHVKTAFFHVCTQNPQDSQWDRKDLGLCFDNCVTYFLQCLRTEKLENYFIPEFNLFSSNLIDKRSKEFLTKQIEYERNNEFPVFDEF
T1 sequence (Q8N884 whole entry): as above
T2 sequence (Q8N884 whole entry): as above

Structure (SMILES) | IC50 [4] [µM] | IC50 [5] [µM] | IC50 [7] [µM] | IC50 [1] [µM] | IC50 [2] [µM] | IC50 [3] [µM] | IC50 [6] [µM] | Ratio THP(cGAMP) IC50/ THP(vir) IC50 [6]
COC(=O)[C@@H]1C[C@H](Oc2ncccc2N2CCOC3(COC3)[C@@H]2C)CN1c1nc(C(F)F)nc2c1oc1ccccc12 [P01 of PCT/EP2022/062480] | – | – | – | 0.358 | 26.1 | 1.31 | – | –
C#Cc1cnc(O[C@H]2C[C@@H](C(=O)OC)N(c3nc(C(F)(F)F)nc4c3oc3ccccc34)C2)c([C@@]2(F)CCS(=O)(=O)C[C@@H]2C)c1 [P01 of PCT/EP2022/062496] | – | – | – | 0.011 | > 16.6 | 0.067 | – | –
CO[C@]1(c2cc(Cl)cnc2O[C@H]2C[C@@H](C(=O)O)N(c3nc(C(F)F)nc4c3oc3ccccc34)C2)CC(C)(C)S(=O)(=O)C[C@@H]1C [Ex. 1.05 of PCT/EP2022/062496] | – | – | – | 0.044 | 13.2 | 0.135 | – | –
C#Cc1cnc(O[C@H]2C[C@@H](C(=O)O)N(c3nc(C(F)(F)F)nc4c3oc3ccccc34)C2)c([C@@]2(F)CCS(=O)(=O)C[C@@H]2C)c1 [Ex. 2.12 of PCT/EP2022/062496] | – | – | – | 0.008 | 21.8 | 0.008 | – | –
COC(=O)[C@@H]1C[C@H](Oc2ncc(Br)cc2N2CCOC3(COC3)[C@@H]2C)CN1c1nc(C(F)(F)F)nc2c1oc1ccccc12 [P02 of PCT/EP2022/062480] | – | – | – | 0.444 | 17.1 | 5.33 | – | –
C#Cc1cnc(O[C@H]2C[C@@H](C(=O)O)N(c3nc(C(F)(F)F)nc4c3oc3ccccc34)C2)c(N2CCOC3(COC3)[C@@H]2C)c1 [Ex. 1.12 of PCT/EP2022/062480] | – | – | – | 0.007 | 11.9 | 0.015 | – | –
C#Cc1cnc(O[C@H]2C[C@@H](C(=O)OC)N(c3nc(C(F)(F)F)nc4c3oc3ccccc34)C2)c(N2CCOC3(COC3)[C@@H]2C)c1 [P03 of PCT/EP2022/062480] | – | – | – | 0.188 | 22.8 | 1.09 | – | –
COC(=O)[C@@H]1C[C@H](Oc2ncc(-c3cccnc3OC)cc2N2CCOC3(COC3)[C@@H]2C)CN1c1nc(C(F)(F)F)nc2c1oc1ccccc12 [P04 of PCT/EP2022/062480] | – | – | – | 0.067 | > 16.6 | 2.75 | – | –
C[C@@H]1N(c2cc(Br)cnc2O[C@H]2C[C@@H](C(=O)O)N(c3nc(C(F)(F)F)nc4c3oc3ccccc34)C2)CCOC12COC2 [Ex. 1.10 of PCT/EP2022/062480] | – | – | – | 0.091 | 16.1 | 0.033 | – | –
C[C@H]1CN2CC[C@]1(F)c1cc(Cl)cnc1O[C@H]1C[C@@H](C(=O)O)N(C1)c1nc(nc3c1oc1ccccc13)CC(=O)NCCCC2=O [Example 01, (1R,9S,11S,34S)-4-Chloro-1-fluoro-34-methyl-26,31-dioxo-8,15-dioxa-6,12,23,27,32,37-hexaaza-heptacyclo[30.2.2.1^9,12.1^13,24.0^2,7.0^14,22.0^16,21]octatriaconta-2,4,6,13(37),14(22),16(21),17,19,23-nonaene-11-carboxylic acid] | 0.025 | 0.15 | 0.208 | – | – | – | 2.9 | 19

More lines, main results first:

IC50 [4] [µM] | IC50 [5] [µM] | IC50 [7] [µM] | Structure (SMILES) | IC50 [1] [µM] | IC50 [2] [µM] | IC50 [3] [µM] | IC50 [6] [µM] | Ratio THP(cGAMP) IC50/ THP(vir) IC50 [6]
0.003 | 0.003 | 0.008 | C[C@H]1CN2CC[C@]1(F)c1cc(Cl)cnc1O[C@H]1C[C@@H](C(=O)O)N(C1)c1nc(nc3c1oc1ccccc13)CCOCCC2=O [Example 38, (1R,9S,11S,33S)-4-chloro-1-fluoro-33-methyl-30-oxo-8,15,27-trioxa-6,12,23,31,36-pentaaza-heptacyclo[29.2.2.1^9,12.1^13,24.0^2,7.0^14,22.0^16,21]heptatriaconta-2,4,6,13(36),14(22),16(21),17,19,23-nonaene-11-carboxylic acid] | – | – | – | > 10 | 2964
0.045 | 0.49 | 1.56 | C[C@H]1CN2CC[C@]1(F)c1cc(Cl)cnc1O[C@H]1C[C@@H](C(=O)O)N(C1)c1nc(nc3c1oc1ccccc13)CCCCCOC2=O [Example 22, (1R,9S,11S,34S)-4-chloro-1-fluoro-34-methyl-31-oxo-8,15,30-trioxa-6,12,23,32,37-pentaaabestacyclo[30.2.2.1^9,12.1^13,24.0^2,7.0^14,22.0^16,21]octatriaconta-2,4,6,13(37),14(22),16(21),17,19,23-nonaene-11-carboxylic acid] | – | – | – | > 10 | 20
0.011 | 0.07 | 0.047 | C[C@H]1CN2CC[C@]1(F)c1cc(Cl)cnc1O[C@H]1C[C@@H](C(=O)O)N(C1)c1nc(nc3c1oc1ccccc13)C(F)(F)OCCCCC2=O [Example 15, (1R,9S,11S,34S)-4-chloro-1,25,25-trifluoro-34-methyl-31-oxo-8,15,26-trioxa-6,12,23,32,37-pentaazaheptacyclo[30.2.2.1^9,12.1^13,24.0^2,7.0^14,22.0^16,21]octatriaconta-2(7),3,5,13(37),14(22),16(21),17,19,23-nonaene-11-carboxylic acid] | – | – | – | 8.2 | 117
0.007 | 0.008 | 0.01 | C[C@H]1CN2CC[C@]1(F)c1cc(-c3cnn(C)c3)cnc1O[C@H]1C[C@@H](C(=O)O)N(C1)c1nc(nc3c1oc1ccccc13)CCOCCCC2=O [Example 20.02] | – | – | – | 7.9 | 946
0.018 | 0.018 | 0.038 | COc1cc(-c2cnc3c(c2)[C@@]2(F)CCN(C[C@@H]2C)C(=O)CCCOCCc2nc(c4oc5ccccc5c4n2)N2C[C@H](C[C@H]2C(=O)O)O3)c(F)cn1 [Example 20.03] | – | – | – | 5.9 | 321
0.013 | 0.14 | 0.096 | C[C@H]1CN2CC[C@]1(F)c1cc(Br)cnc1O[C@H]1C[C@@H](C(=O)O)N(C1)c1nc(nc3c1oc1ccccc13)CCOCCCC2=O [Example 17] | – | – | – | 5.6 | 40
0.005 | 0.003 | 0.016 | C[C@H]1CN2CC[C@]1(F)c1cc(Cl)cnc1O[C@H]1C[C@@H](C(=O)O)N(C1)c1nc(nc3c1oc1cc(Cl)ccc13)C(F)(F)CCCOCC2=O [Example 33] | – | – | – | 6.4 | 2085
0.0028 | 0.011 | 0.009 | C[C@H]1CN2CC[C@]1(F)c1cc(Cl)cnc1O[C@H]1C[C@@H](C(=O)O)N(C1)c1nc(nc3c1oc1ccccc13)COC(=O)CCC2=O [Example 11, (1R,9S,11S,33S)-4-Chloro-1-fluoro-33-methyl-27,30-dioxo-8,15,26-trioxa-6,12,23,31,36-pentaazaheptacyclo[29.2.2.1^9,12.1^13,24.0^2,7.0^14,22.0^16,21]heptatriaconta-2,4,6,13(36),14(22),16(21),17,19,23-nonaene-11-carboxylic acid] | – | – | – | > 10 | 902
0.017 | 0.61 | 0.084 | C[C@H]1CN2CC[C@]1(F)c1cc(Cl)cnc1O[C@H]1C[C@@H](C(=O)O)N(C1)c1nc(nc3c1oc1ccccc13)COCCCCCC2=O [Example 12] | – | – | – | 10 | 17
